From paper PMC7503767, “Alkoxyamines Designed as Potential Drugs against Plasmodium and Schistosoma Parasites” (Molecules, 2020)
Read-outs that look alike come from different tables or passages of the source.

Assays:
[1] = tested on: Adult S. mansoni; test: In vitro antischistosomal activity on adult worms; format: cell-based, Schistosoma mansoni; conditions: for Time for the death of 100% worms / S. mansoni Mean Survival Time: adult S. mansoni, observation up to 8 h; for Time for the death of 100% worms / Mean (±SD) survival time – Adult S. mansoni: 100 µg/mL; for S. mansoni Mean Survival Time: single dose 100 µg/mL; for Mean (±SD) survival time – Adult S. mansoni: observation up to 8 h (Table S1)
Description: The NMRI strain of Schistosoma mansoni was used for the experimentations. The parasite was maintained on an albino variety of Biomphalaria glabrata from Brazil (intermediate host) and in Golden Hamsters, Mesocricetus auratus (Janvier Labs, Le Genest-Saint-Isle, France). Detailed methods, for mollusk and hamster infections and for parasite recovery, were previously described.
Adult worms were recovered between 42 and 47 days after infection by hepatic perfusion technique. Twenty to fifty adult worms were disposed in 12-well Falcon® plate containing 2 mL of RPMI 1640 (supplemented with L-glutamine and Hepes 25 mM) and stored in an incubator chamber (37 °C; 5% CO2). Drug preparation started with dissolution of the drug in DMSO to give a 100 mg/mL stock solution. The dilution was complemented with Tween 80 and RPMI in order to obtain the following final ratio dilution: RPMI 1640/Tween 80/DMSO, 1000/0.95/3.8, v/v/v. The drug solution was added to Falcon plates that contained adult worms. The S. mansoni cultures were then incubated with each drug at a final concentration of 100 µg/mL. Positive control was carried out with a solution of praziquantel (Merck KGaA, Darmstadt, Germany) at a concentration of 100 µg/mL. Negative control was carried out with the same RPMI 1640/Tween 80/DMSO solution, but without any drug. Each test was performed in duplicate. Every hour, moving worms were counted in order to define the percentage of survivors. Parasites showing no body contractions during a 30 s observation were considered as dead. Observations were extended to 8 h. Mean survival times (± standard deviation) were calculated for each drug using Kaplan–Meier survival analyses.

[2] = tested on: P. falciparum F32-TEM (artemisinin-sensitive strain); test: Standard chemosensitivity assay (SYBR Green I), F32-TEM; format: cell-based, Plasmodium falciparum
Protocol: (§1) F32-ART5, an artemisinin-resistant strain and F32-TEM, an artemisinin-sensitive strain, were obtained from the parental clone F32-Tanzania, respectively under regular drug pressure cycles of increasing artemisinin concentrations for 5 years and without any artemisinin pressure. After these drug pressure cycles allowing selection of the F32-ART5 strain, regular drug pressures were performed to maintain its phenotype. […] Briefly, parasites were cultured in RPMI 1640 (Fisher Scientific, Waltham, Illkirch-Graffenstaden, France) supplemented with 5% type AB human serum (Etablissement français du Sang, Toulouse, France) and adjusted at a parasitemia of 1% and 2% hematocrit with type O human at 37 °C and 5% CO2. Parasite development was daily monitored by Giemsa staining.
(§2) Briefly, for the determination of IC50 values, the chemosensitivity assay was carried out in 96-well culture plates on D-sorbitol ring-stage synchronized parasites and antiplasmodial activities were evaluated using the SYBR Green I method. Drug testing was performed in triplicates in a dose range of 5 to 7 concentrations. […] Parasites were left to proliferate with the given compounds for 48 h at 37 °C and 5% CO2. After this period, pellets were washed 3 times in sterile PBS prior to putting the plates at −20 °C overnight to lyse all red blood cells. The following day, the plates were thawed at room temperature, 100 µL of each well was transferred into a black 96-well plate to which another 100 µL of 2× PBS-diluted SYBR Green I (Sigma-Aldrich) was added and left to incubate for 2 h at room temperature prior to reading the plates on BioTek FL× 800 Microplate Fluorescence Reader (λexcitation = 485 nm, λemission = 528 nm).
(§3) IC50 values were determined using GraphPad Prism by drawing the curve % inhibition vs. [Drug] and using a four-parameter dose–response curve with the following equation: Y=Bottom+ Top−Bottom/1+x^Hill Slope/IC50Hill Slope

[3] = tested on: P. falciparum F32-ART5 (artemisinin-resistant strain); test: Standard chemosensitivity assay (SYBR Green I), F32-ART5; format: cell-based, Plasmodium falciparum; conditions: ^1 n = 1, ^2 n = 2
Protocol: as §1, §2, §3

[4] = tested on: Vero cells; test: Cytotoxicity assay (MTT); conditions: for Selectivity Index: ratio cytotoxicity (Vero)/activity on Plasmodium; for IC50: read-out: Cytotoxicity Mean IC50, Vero cell lines, 48 h, MTT
Protocol: (§4) Vero cells were cultured in MEM (Dutscher, Brumath, France) supplemented with 10% fetal bovine serum, 1× non-essential amino acids, 100 U/mL, 100 µg/mL penicillin/streptomycin, and 2 mM L-glutamine at 37 °C in a humidified 5% CO2 atmosphere. […] At this time, each well was microscope-examined for detection of possible precipitate formation prior to remove the supernatant by flicking the plate. 100 µL of a 0.5 mg/mL PBS-dissolved MTT tetrazolium (stock solution at 5 mg/mL) was then added to each well [48]. The plates were then incubated for 1 h at 37 °C and 5% CO2 prior to removing the supernatant and adding 100 µL of DMSO. Plates were gently shaken to dissolve formazan crystals resulting from the MTT tetrazolium reduction by living cells and read at 570 nm with BioTek µQuant Microplate Spectrophotometer.

[5] = Cytotoxicity assay (MTT); conditions: African green monkey
Protocol: as §4

[6] = tested on: P. falciparum chloroquine-resistant strain FcB1-Columbia; test: Antiplasmodial screen at 10 µM and chemosensitivity assay (SYBR Green I), FcB1-Columbia; format: cell-based, Plasmodium falciparum
[7] = Homolysis of the NO–C bond measured by EPR
Protocol: Homolysis rate constants kd’ were measured by EPR and estimated using Equation (1) as reported many times in the literature. Further, Ea and kd were estimated using Equation (2). (1) ln([nitroxide]∞−[nitroxide]t/[nitroxide]∞)=−kd·t (2) Ea=−RT ln([…] kd′ )

[8] = read-out: P. falciparum Strains Mean IC50, F32-TEM, 48 h, ^1 n = 1, ^2 n = 2
[9] = read-out: P. falciparum Strains Mean IC50, F32-ART5, 48 h
[10] = Plasmodium falciparum, F32, 48 h, read-out: P. falciparum Strains Mean IC50, F32-TEM, 48 h, ^1 n = 1, ^2 n = 2
[11] = Plasmodium falciparum, F32, 48 h, read-out: P. falciparum Strains Mean IC50, F32-ART5, 48 h
[12] = Cytotoxicity Mean IC50, Vero cell lines, 48 h, MTT
[13] = FcB1-Columbia strain, read-out: IC50 on P. falciparum
[14] = 48 h, ^1 n = 1, ^2 n = 2, read-out: P. falciparum Strains Mean IC50, F32-TEM
[15] = 48 h, read-out: P. falciparum Strains Mean IC50, F32-ART5
[16] = Plasmodium falciparum, FCB1, read-out: IC50 on P. falciparum, FcB1-Columbia strain

Structure (SMILES) | Time for the death of 100% worms [1] | S. mansoni Mean Survival Time [1] | Selectivity Index [4] | IC50 [4] | IC50 [2, 10] | IC50 [3, 11] | IC50 [6, 13] | Mean (±SD) survival time – Adult S. mansoni [1] | IC50 [3, 15] | also measured
CCOP(=O)(OCC)C(N(OC(C)c1cc(-c2ccccn2)nc(-c2ccccn2)c1)C(C)(C)C=O)C(C)(C)C (centres unmarked) [(RR/SS)-7F, Diethyl(1-((1-([2,2′:6′,2′′-terpyridin]-4′-yl)ethoxy)(2-methyl-1-oxopropan-2-yl)amino)-2,2-dimethylpropyl)phosphonate] | 3 h | 2.5 ± 0.1 h | 1 | 1200 ± 1300 nM | – | – | – | – | – | IC50 [2, 8]: 940 nM; IC50 [3, 9]: 850 nM
CCOP(=O)(OCC)C(N(OC(C)c1cc(-c2ccccn2)nc(-c2ccccn2)c1)C(C)(C)C=O)C(C)(C)C (centres unmarked) [(RS/SR)-7F, Diethyl(1-((1-([2,2′:6′,2′′-terpyridin]-4′-yl)ethoxy)(2-methyl-1-oxopropan-2-yl)amino)-2,2-dimethylpropyl)phosphonate] | 3 h | 2.7 ± 0.1 h | 0.6 | – | 1300 nM | 1400 nM | – | – | – | IC50 at 48 h [5, 12]: 900 ± 400 nM
CCOP(=O)(OCC)C(N(OC(C)c1ccc2ccc3cccnc3c2n1)C(C)(C)C)C(C)(C)C (centres unmarked) [1J] | 2 h | 1.1 ± 0.1 h | – | 6200 ± 1200 nM | – | – | 3100 ± 1100 nM | 1.1 ± 0.05 h | 2300 nM | IC50 [2, 14]: 2900 nM
CCOP(=O)(OCC)C(N(OC(C)c1cc(-c2ccccn2)nc(-c2ccccn2)c1)C(C)(C)C(=O)O)C(C)(C)C (centres unmarked) [(RR/SS)-4F, 2-((1-([2,2′:6′,2′′-Terpyridin]-4′-yl)ethoxy)(1-(diethoxyphosphoryl)-2,2-dimethylpropyl)amino)-2-methylpropanoic acid] | > 8 h | > 8 h | 2 | 8100 nM | – | – | – | > 8 h | – | IC50 [2, 8]: 4600 nM; IC50 [3, 9]: 4600 nM
CCOP(=O)(OCC)C(N(OC(C)c1ccc2ccc3cccnc3c2n1)C(C)(C)CO)C(C)(C)C (centres unmarked) [2J] | 1 h | 1.0 ± 0.0 h | – | 17000 ± 6300 nM | – | – | 2500 ± 1500 nM | 1.0 ± 0.0 h | 4600 nM | IC50 [2, 14]: 5000 nM
CCc1cc(-c2ccccn2)nc(-c2ccccn2)c1 [compound 22, 4′-ethyl terpyridine] | > 8 h | >8 h | 22 | – | 240 nM | 230 nM | – | > 8 h | – | IC50 ([6]; Plasmodium falciparum, FcB1-Columbia strain, read-out: IC50 on P. falciparum): 910 ± 60 nM; IC50 at 48 h ([5]; Vero cells): 5300 ± 4500 nM
CCOP(=O)(OCC)C(N(OC(C)c1cc(-c2ccccn2)nc(-c2ccccn2)c1)C(C)(C)CO)C(C)(C)C (centres unmarked) [(RR/SS)-2F, Diethyl(1-((1-([2,2′:6′,2′′-terpyridin]-4′-yl)ethoxy)(1-hydroxy-2-methylpropan-2-yl)amino)-2,2-dimethylpropyl)phosphonate] | – | 2.5 ± 0.2 h | 1 | 700 ± 300 nM | – | – | – | – | – | IC50 ([6]; read-out: IC50 on P. falciparum, FcB1-Columbia strain): 200 nM; IC50 [2, 8]: 500 ± 100 nM; activation energy Ea ([7]; MeOH/water 1:1 pH = 7.4): 28.39 kcal/mol; re-estimated homolysis rate constant kd at 120 °C ([7]; MeOH/water 1:1 pH = 7.4): 38.9 10^−3 s^−1; half-lifetime t1/2 at 37 °C ([7]; MeOH/water 1:1 pH = 7.4 (aqueous medium)): 84 h; homolysis rate constant kd′ ([7]; MeOH/water 1:1 pH = 7.4, 81 °C): 7.1 10^−4s^−1; activation energy Ea ([7]; t-BuPh): 28.42 kcal/mol; half-lifetime t1/2 at 37 °C ([7]; t-BuPh): 84 h; re-estimated homolysis rate constant kd at 120 °C ([7]; t-BuPh): 38.4 10^−3 s^−1; homolysis rate constant kd′ ([7]; t-BuPh, 81 °C): 7.0 10^−4s^−1; IC50 [3, 9]: 400 ± 100 nM
CCOP(=O)(OCC)C(N(OC(C)c1cc(-c2ccccn2)nc(-c2ccccn2)c1)C(C)(C)CO)C(C)(C)C (centres unmarked) [2F] | – | 2.1 to 2.5 h | 1 | – | – | – | – | – | – | IC50 [6, 16]: 200 to 300 nM; IC50 ([2]; Plasmodium falciparum, F32, read-out: IC50 on the F32 strains, F32-TEM and F32-ART5 taken together): 400 to 600 nM
CCOP(=O)(OCC)C(N(OC(C)c1ccnc2c1ccc1cccnc12)C(C)(C)C)C(C)(C)C (centres unmarked) [1K] | 2 h | 1.1 ± 0.0 h | – | 1100 ± 700 nM | – | – | 1300 ± 300 nM | 1.1 ± 0.04 h | 1600 nM | –
CC(ON1C(C)(C)CCCC1(C)C)c1ccncc1 (centres unmarked) [9a] | 3 h | 3.0 ± 0.0 h | – | 40000 ± 13000 nM | – | – | 8000 ± 3000 nM | 3.0 ± 0.0 h | 13000 nM | IC50 [2, 14]: 7500 nM
CCOP(=O)(OCC)C(N(OC(C)c1cc(-c2ccccn2)nc(-c2ccccn2)c1)C(C)(C)C(=O)O)C(C)(C)C (centres unmarked) [(RS/SR)-4F, 2-((1-([2,2′:6′,2′′-Terpyridin]-4′-yl)ethoxy)(1-(diethoxyphosphoryl)-2,2-dimethylpropyl)amino)-2-methylpropanoic acid] | 7 h | 5.2 ± 0.2 h | 4 | – | 2900 nM | 4700 nM | – | – | – | IC50 [6, 16]: 2900 nM; IC50 at 48 h [5, 12]: 15000 ± 5000 nM
CCN(CC)CCCC(C)Nc1ccnc2cc(Cl)ccc12 (centres unmarked) [Chloroquine, chloroquine, reference compound] | – | – | – | – | 60 ± 20 nM | 60 ± 30 nM | – | – | – | IC50 ([6]; Plasmodium falciparum, FCB1, read-out: IC50 on P. falciparum): 160 ± 36 nM; IC50 at 48 h [5]: 190000 ± 56000 nM
